Key:
[1] = molecular target: T1, Complement factor B (Homo sapiens, UniProt P00751); experiment: Human complement factor B ELISA assay (CVF-Bb, complement C3 protein); assay type: biochemical; set-up: followed by the addition of 0.2 μL of CVF-Bb (0.1 μmol/mL); conditions: CVF-Bb incubated with compound 1 hour, then complement C3 protein 37° C. 2 hours, OD 450 nm
Description: The mixture was incubated at room temperature for 1 hour;
Then, 9 μL of the successfully incubated samples were taken and added to the wells of the 96T plate, followed by the addition of 1 μL complement C3 protein, and the reaction was carried out at a constant temperature of 37° C. for 2 hours;
The 9 μL of the aforementioned sample-free liquid was mixed with 1 μL of complement C3 protein as the negative control; • 10 μL of the successfully incubated sample was taken, and the inhibitory concentration was determined by ELISA. The OD value at 450 nm was measured, and a curve was plotted. The obtained data were analyzed using GraphPad Prism 7.0 software, and a Log concentration-inhibition rate curve was generated using a nonlinear regression model to calculate the IC50 value.
Target sequence in this assay (P00751 260-764 limits assumed): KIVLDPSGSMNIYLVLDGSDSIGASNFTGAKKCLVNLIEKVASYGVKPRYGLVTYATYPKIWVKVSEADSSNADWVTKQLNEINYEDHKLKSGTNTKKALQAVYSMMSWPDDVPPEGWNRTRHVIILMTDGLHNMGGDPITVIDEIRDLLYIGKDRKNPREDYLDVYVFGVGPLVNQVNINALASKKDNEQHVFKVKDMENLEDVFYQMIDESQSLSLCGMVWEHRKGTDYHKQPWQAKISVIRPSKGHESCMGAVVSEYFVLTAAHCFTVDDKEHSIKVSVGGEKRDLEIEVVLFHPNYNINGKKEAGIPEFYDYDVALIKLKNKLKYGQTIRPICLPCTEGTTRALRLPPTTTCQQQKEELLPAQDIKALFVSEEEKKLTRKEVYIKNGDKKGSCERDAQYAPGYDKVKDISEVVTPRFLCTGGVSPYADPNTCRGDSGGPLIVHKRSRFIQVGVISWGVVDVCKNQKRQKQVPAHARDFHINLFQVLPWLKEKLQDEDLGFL
Target sequence in this assay (Q91132 23-649 partner limits assumed): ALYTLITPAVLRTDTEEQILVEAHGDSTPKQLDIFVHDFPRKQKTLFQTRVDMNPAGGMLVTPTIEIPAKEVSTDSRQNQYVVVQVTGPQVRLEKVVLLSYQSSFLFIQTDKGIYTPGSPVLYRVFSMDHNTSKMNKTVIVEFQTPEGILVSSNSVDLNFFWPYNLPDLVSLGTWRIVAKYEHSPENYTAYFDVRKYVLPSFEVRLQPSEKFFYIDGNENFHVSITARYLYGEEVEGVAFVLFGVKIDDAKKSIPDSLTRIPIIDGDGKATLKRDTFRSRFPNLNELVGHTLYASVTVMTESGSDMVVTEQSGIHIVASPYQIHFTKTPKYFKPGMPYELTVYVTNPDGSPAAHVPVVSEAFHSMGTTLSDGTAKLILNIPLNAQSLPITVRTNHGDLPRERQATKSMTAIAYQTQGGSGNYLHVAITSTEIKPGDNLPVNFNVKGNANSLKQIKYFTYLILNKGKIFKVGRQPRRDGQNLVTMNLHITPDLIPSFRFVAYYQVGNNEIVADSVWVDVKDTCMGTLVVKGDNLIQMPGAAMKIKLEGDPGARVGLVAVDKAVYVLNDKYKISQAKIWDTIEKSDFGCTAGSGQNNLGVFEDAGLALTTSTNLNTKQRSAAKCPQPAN
Target sequence in this assay (Q91132 733-984 partner limits assumed): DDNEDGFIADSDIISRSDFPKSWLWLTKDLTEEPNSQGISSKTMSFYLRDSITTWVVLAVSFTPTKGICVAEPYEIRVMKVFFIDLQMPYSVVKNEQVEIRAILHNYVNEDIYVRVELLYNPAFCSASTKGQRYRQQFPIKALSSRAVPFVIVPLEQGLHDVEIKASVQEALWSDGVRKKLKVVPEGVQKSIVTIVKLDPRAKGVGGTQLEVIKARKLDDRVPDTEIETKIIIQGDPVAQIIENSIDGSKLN
Target sequence in this assay (Q91132 1264-1642 partner limits assumed): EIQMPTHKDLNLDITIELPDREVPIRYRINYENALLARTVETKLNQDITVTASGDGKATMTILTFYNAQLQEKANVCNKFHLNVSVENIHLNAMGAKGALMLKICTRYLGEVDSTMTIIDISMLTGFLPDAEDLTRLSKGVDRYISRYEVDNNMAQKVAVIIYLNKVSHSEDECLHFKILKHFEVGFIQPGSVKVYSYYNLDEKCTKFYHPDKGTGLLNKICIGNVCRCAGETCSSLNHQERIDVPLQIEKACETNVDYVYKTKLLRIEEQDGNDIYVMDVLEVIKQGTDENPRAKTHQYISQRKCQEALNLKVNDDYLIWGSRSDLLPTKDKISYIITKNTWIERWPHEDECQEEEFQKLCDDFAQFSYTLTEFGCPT

[2] = molecular target: T1, Complement factor B; experiment: Optical surface plasmon resonance (SPR) binding affinity assay
Target sequence in this assay (P00751 26-764): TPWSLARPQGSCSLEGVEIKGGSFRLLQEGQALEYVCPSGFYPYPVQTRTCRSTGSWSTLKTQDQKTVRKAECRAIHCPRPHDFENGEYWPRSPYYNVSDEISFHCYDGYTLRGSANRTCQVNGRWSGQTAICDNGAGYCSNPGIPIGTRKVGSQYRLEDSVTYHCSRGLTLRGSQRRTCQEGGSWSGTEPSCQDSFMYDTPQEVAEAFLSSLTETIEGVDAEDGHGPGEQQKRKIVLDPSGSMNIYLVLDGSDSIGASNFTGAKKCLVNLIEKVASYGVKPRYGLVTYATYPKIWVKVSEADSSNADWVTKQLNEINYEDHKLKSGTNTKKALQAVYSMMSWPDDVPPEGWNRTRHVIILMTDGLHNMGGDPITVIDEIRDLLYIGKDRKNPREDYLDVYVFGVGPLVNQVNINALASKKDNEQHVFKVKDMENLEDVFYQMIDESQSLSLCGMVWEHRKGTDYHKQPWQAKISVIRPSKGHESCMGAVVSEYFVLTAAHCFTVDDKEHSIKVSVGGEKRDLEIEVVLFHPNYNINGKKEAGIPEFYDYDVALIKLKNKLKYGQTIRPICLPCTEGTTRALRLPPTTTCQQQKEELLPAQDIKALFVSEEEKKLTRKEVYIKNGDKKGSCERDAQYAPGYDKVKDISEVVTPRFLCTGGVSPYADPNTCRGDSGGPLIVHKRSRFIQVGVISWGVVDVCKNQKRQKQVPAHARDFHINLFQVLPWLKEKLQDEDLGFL
Method: The SPR experiment was conducted at 25° C. using PBS buffer supplemented with 0.05% (v/v) P20 and 5% DMSO as the running buffer. The Biacore 8K instrument from GE Healthcare was employed for analysis. The CM3 chip (GE Healthcare) was activated with 400 mM EDC and 100 mM NHS at a flow rate of 30 μL/min for 420 s.

[3] = test system: PNH-like erythrocytes; experiment: Alternative pathway inhibition assay of PNH-like erythrocyte; assay type: cell-based; conditions: 1 h, AET/anti-CD55 sensitized human erythrocytes, acidified normal human serum pH 6.4, 37° C. 60 min
From the text: Principle: PNH, as an indication for complement inhibitors, was typically tested using the Ham test, which states that acidified serum was capable of activating the alternative pathway, leading to hemolysis of PNH erythrocytes, while normal erythrocytes remained unaffected. It was reported in the literature that AET could disrupt the complement regulatory proteins on the surface of normal human erythrocytes, resulting in PNH-like erythrocytes.
Reagents and instrument: PBS buffer, normal human serum (NHS), Alsever's solution, microplate reader, MgCl2, EGTA, EDTA, HCl, normal human erythrocytes, AET; anti-CD-55 antibody (BRIC216; Sigma)
PBS buffer: Potassium dihydrogen phosphate (KH2PO4): 0.24 g/L, disodium hydrogen phosphate (Na2HPO4): 1.44 g/L, sodium chloride (NaCl): 8 g/L, potassium chloride (KCl): 0.2 g/L, pH 7.4
PBSE buffer: PBS, 10 mM EDTA; pH 7.4
PBSMg buffer: PBS, 1 mM Mg++; pH 6.4
10× Mg-EGTA stock solution: 25 mM MgCl2, 80 mM EGTA; pH 6.4
10× EDTA stock solution: 100 mM EDTA; pH 6.4
Method: The inhibition of alternative pathway-mediated erythrocyte lysis was evaluated using an in vitro model of PNH. Normal human erythrocytes were sensitized with 2-aminoethylisothiouronium bromide (AET) to inactivate complement regulatory proteins on the cell surface and induce a PNH-like phenotype.
2 mL of normal human erythrocytes were mixed with 2 mL of Alsever's solution, washed three times with PBS, and centrifuged at 2500×g, with the upper 10% of the erythrocytes being removed each time. The washed 1 mL erythrocytes were sensitized by incubation with 4 mL of 8% w/v AET (pH 8.0) at 37° C. for 10 min, followed by three additional washes with PBS. Subsequently, the concentration of erythrocytes in PBS (erythrocyte stock solution) was adjusted with PBS such that an absorbance of 1.5-2.0 at 412 nm (indicating hemoglobin release) was achieved upon dilution of 10 μL erythrocyte stock solution with 190 μL water.
1.5 mL of the erythrocyte stock solution was mixed with anti-CD55 antibody (BRIC216; Sigma/final concentration of 6.7 μg/mL) and incubated on ice for 30 min. After being washed once with PBS, the treated erythrocytes were resuspended in PBS-Mg to the initial volume of 1.5 mL. The following AP-mediated lysis assay was performed on this erythrocyte preparation with induced PNH phenotype.
The normal human serum was acidified with 0.2 M HCl to pH 6.4, and supplemented with MgCl2 and EGTA to final concentrations of 2.5 and 8 mM, respectively. 80 μL of this serum mixture was mixed with 10 μL of PBS-Mg (negative blank) or 10 μL of samples at various concentrations. Normal human serum was acidified with 0.2 M HCl to pH 6.4, supplemented with EDTA to a final concentration of 10 mM, and 80 μL of this serum mixture was mixed with 10 μL of PBS-Mg (negative blank) as a blank positive control. The sample was incubated with serum on ice for 5 min, and then 10 μL of sensitized erythrocytes were added. The final serum concentration in the reaction mixture was approximately 64% v/v, incubated at 37° C. for 60 min, and the reaction was quenched by adding 50 μL of ice-cold PBS containing 10 mM EDTA. The remaining unlysed cells were centrifuged at 2500×g for 10 min, and 100 μL of the supernatant was transferred to a 96-well plate to measure its absorbance at 412 nm. The amount of hemoglobin released during erythrocyte lysis was thereby quantified. […] represented the relative lysis of PNH-like erythrocytes (expressed in %; set to 0% for the PC sample and 100% for the NC sample). The absorbance was measured using a microplate reader (Molecular Devices SpectraMax 3X). The IC50 value was calculated by applying nonlinear regression with GraphPad Prism 9.0 software from the percentage of hemolysis as a function of the test compound concentration.

Compound | IC50 [1] [nM] | Kd [2] [nM] | IC50 [3] [nM]
COc1cc(C)c2[nH]ccc2c1C(=O)N1CCC(O)(C2CCC2)C[C@H]1c1ccc(C(=O)O)cc1 (mixture of isomers) [Final product of Example 154, 4-((2S)-4-Cyclobutyl-4-hydroxy-1-(5-methoxy-7-methyl-1H-indole-4-carbonyl)piperidin-2-yl)benzoic acid] | 400 to 450 | 10 to 30 | 4000 to 4500
CCO[C@H]1CCN(C(=O)c2c(OC)cc(C)c3[nH]ccc23)[C@H](c2ccc(C(=O)O)cc2)C1 [Compound 1 of Example 55, 4-((2S,4S)-4-Ethoxy-1-(5-methoxy-7-methyl-1H-indole-4-carbonyl)piperidin-2-yl)benzoic acid] | 150 to 300 | 10 to 30 | 1000 to 1500
COc1cc(C)c2[nH]ccc2c1C(=O)N1CC[C@H](OCC2CC2)C[C@H]1c1ccc(C(=O)O)cc1 [Compound 9 of Example 71, 4-((2S,4S)-4-(Cyclopropylmethoxy)-1-(5-methoxy-7-methyl-1H-indole-4-carbonyl)piperidin-2-yl)benzoic acid] | – | 10 to 30 | 6000 to 6500
CCO[C@H]1CCN(S(=O)(=O)c2c(OC)cc(C)c3[nH]ccc23)[C@H](c2ccc(C(=O)O)cc2)C1 [Compound 51 of Example 144, 4-((2S,4S)-4-Ethoxy-1-((5-methoxy-7-methyl-1H-indol-4-yl)sulfonyl)piperidin-2-yl)benzoic acid] | 300 to 500 | 10 to 30 | 2000 to 2500
COc1cc(C)c2[nH]ccc2c1C(=O)N1CCC(O)(C2CC2)C[C@H]1c1ccc(C(=O)O)cc1 (stereo partly drawn) [Final product of Example 155, 4-((2S)-4-Cyclopropyl-4-hydroxy-1-(5-methoxy-7-methyl-1H-indole-4-carbonyl)piperidin-2-yl)benzoic Acid] | 150 to 300 | 10 to 30 | 1000 to 1500
COc1cc(C)c2[nH]ccc2c1C(=O)N1CC[C@H](OC)C[C@H]1c1ccc(C(=O)O)cc1 [Final product of Example 156, 4-((2S,4S)-4-Methoxy-1-(5-methoxy-7-methyl-1H-indole-4-carbonyl)piperidin-2-yl)benzoic acid] | 150 to 300 | 10 to 30 | 1000 to 1500
COc1cc(C)c2[nH]ccc2c1C(=O)N1CC[C@H](OC2CCC2)C[C@H]1c1ccc(C(=O)O)cc1 [Final product of Example 157, 4-((2S,4S)-4-Cyclobutoxy-1-(5-methoxy-7-methyl-1H-indole-4-carbonyl)piperidin-2-yl)benzoic acid] | 400 to 450 | 10 to 30 | 4000 to 4500
CCO[C@H]1CCN(Cc2c(OC)cc(C)c3[nH]ccc23)[C@H](c2ccc(C(=O)O)cc2)C1 [LNP023, reference compound] | – | – | 224

— patent US20260184689A1, “PIPERIDINE-SUBSTITUTED BENZOIC ACID COMPOUND, AND PHARMACEUTICAL COMPOSITION AND USE THEREOF” (SHANGHAI YISHENG BIOPHARMACEUTICAL COMPANY LIMITED, priority 2022, published 2026)
